In PMC3818959 (Journal of Ginseng Research, 2013):

Target: KCNQ1 (IKs channel, KCNQ1 + KCNE1) (Homo sapiens, UniProt P51787)
Assay: cell-based

KCNQ1 (IKs channel, KCNQ1 + KCNE1), sequence (P51787 whole entry): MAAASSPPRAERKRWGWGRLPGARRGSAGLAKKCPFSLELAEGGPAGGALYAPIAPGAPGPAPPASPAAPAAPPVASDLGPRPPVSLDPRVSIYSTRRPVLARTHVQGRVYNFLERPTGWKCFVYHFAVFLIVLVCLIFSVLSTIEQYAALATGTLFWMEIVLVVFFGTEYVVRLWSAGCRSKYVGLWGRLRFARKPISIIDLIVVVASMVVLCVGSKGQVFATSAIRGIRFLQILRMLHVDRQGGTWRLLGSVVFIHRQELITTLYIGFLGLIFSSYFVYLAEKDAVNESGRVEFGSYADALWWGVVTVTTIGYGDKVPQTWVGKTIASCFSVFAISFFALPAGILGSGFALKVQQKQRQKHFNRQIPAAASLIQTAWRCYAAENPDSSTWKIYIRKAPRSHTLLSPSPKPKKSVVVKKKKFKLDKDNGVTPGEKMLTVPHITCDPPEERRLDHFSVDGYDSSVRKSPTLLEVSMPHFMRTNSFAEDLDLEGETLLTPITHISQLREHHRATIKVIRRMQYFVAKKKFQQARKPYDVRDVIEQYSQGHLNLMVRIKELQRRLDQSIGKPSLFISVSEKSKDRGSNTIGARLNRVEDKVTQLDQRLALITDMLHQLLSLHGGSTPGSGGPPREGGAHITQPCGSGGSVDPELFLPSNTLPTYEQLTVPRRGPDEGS

CC(C)=CCC[C@](C)(O)[C@H]1CC[C@]2(C)[C@@H]1[C@H](O)C[C@@H]1[C@@]3(C)CC[C@H](O)C(C)(C)[C@@H]3[C@@H](O)C[C@]12C [PPT, protopanaxatriol] gave an IC50 of 5.18 ± 0.13 µM.
